{"source": "patent US10632324B2", "about": "“Method for the treatment of skin tissues” (9127-4910 Quebec Inc., priority 2017, dated 2020)", "type_in_all_cases": "in vivo, human", "key": {"inflammatory acne": {"tested_on": "inflammatory acne", "experiment": "Randomized, controlled, rater-blinded split face/back trial of IR pre-treatment plus ALA-PDT vs ALA-PDT alone (Example 9)", "conditions": "for Change from Baseline in Lesion Counts, Closed comedones, Median / Change from Baseline in Lesion Counts, Nodules, Median / Change from Baseline in Lesion Counts, Open comedones, Median / Change from Baseline in Lesion Counts, Papules, Median / Change from Baseline in Lesion Counts, Pustules, Median / Change from Baseline in Lesion Counts, Total Noninflammatory lesions, Median: week 4; for Change from Baseline in Lesion Counts, Total Inflammatory lesions, Median: week 4 (reduction); for Clinical Global Severity Assessment at Week-4, Median: six-point scale, grade 0 clear to 5 very severe (Table 1)", "experimental": "One side was pre-treated for 15 minutes with radiant IR light emitting diode (LED) (970 nm), while the other side was used as control. ALA was then applied after which PDT LED (630 nm) was performed on the entire face or back surface. Blinded lesion counts and clinical global assessment of severity were performed based on digital photographs before and four weeks after the PDT procedure.\nInclusion criteria included patients with skin type I to III according to the Fitzpatrick Classification System [^xxviii]. Exclusion criteria comprised patients taking cortisone (Prednisone), anticoagulant therapy, or any drug known to increase photosensitivity. In addition, during the 12 months preceding the study, patients were required not to have used isotretinoin (Accutane), or applied topical steroids on the site to be treated. Moreover, oral antibiotics use, laser or topical anti-acne medication at the to-be-treated site were not permitted for eight weeks prior to the study. Patients gave written informed consent to participate in this trial in compliance with the US Code of Federal Regulations dealing with the conduct of clinical studies (21 CFR including parts 50 and 56 concerning informed consent and IRB regulations). The study was conducted according to Good Clinical Practice Guidelines and the principles of the Declaration of Helsinki, and was approved by the Institutional Review Board Services (Div. 1373737 Toronto, Canada).\nPatients were assigned to a split face or split back group to allow for within-patient assessments of clinical effects. Assignment was based on the patient's problem area. One side was randomly (using a coin flip) assigned to receive IR pre-treatment and ALA-PDT, and the other ALA-PDT alone to serve as control. The IR pre-treatment consisted of a 15 minute exposure to radiant IR LED at 970 nm ([…] using the LumiPhase-R/IR™, OPUSMED Inc. Montreal, Canada) to reach peak H2O absorption inside-out temperature of 45° C. Papillary dermis temperature was monitored with a needle probe throughout the session and up to 40 minutes (Type-T thermocouple, Omega, Montreal, Canada). ALA (20% Levulan Kerastick, DUSA Pharmaceuticals, USA) was then applied on both sides for 60 minutes, after which PDT with LED at 630 nm (50 mW/cm^2, 70 J/cm^2) was performed on the entire face or back surface for a duration of 23 minutes (LumiPhase-R/B™, OPUSMED Inc. Montreal, Canada). No cooling method was used. Digital photographs (Canon Dual Flash EOS 10D, Canon, Tokyo, Japan with EX SIGMA 50 mm 1:2.8 macro lens, Sigma, Aizu, Japan) were taken prior to and four weeks after the procedure. Each photograph was taken maintaining identical ambient lighting, pose and camera angles.\nAcne lesion counts were performed before and four weeks after the PDT treatment. All types of inflammatory (papules, pustules, nodules) and noninflammatory (open and closed comedones) acne lesions were counted. Lesion counts were performed based on the digital photographs by two non-treating physicians who were blinded to the treatment regimen (IR-treated or control side) and to the timing of the photographs (baseline or post-treatment).\nThe global severity of acne was assessed at the end of the study by the […] non-treating physicians, as described above, using a six-point rating scale (Table 1). Clinical success was defined by grades 0 (clear) or 1 (almost clear).\nAdverse reactions were monitored throughout the study. Signs of erythema, oedema, scaling/crusting, bronzing, textural changes, hyperpigmentation, and hypopigmentation were documented during the time period of the clinical trial.\nCronbach's alpha was calculated to assess inter-rater reliability in assessments. Reliability was deemed acceptable if Cronbach alpha was […] allowing raters' assessments to be combined for analysis. The primary outcome variable was the percent change from baseline in inflammatory lesion count measured four weeks post-treatment. […]"}, "cystic acne": {"tested_on": "cystic acne", "experiment": "Split face/back pre-PDT radiant IR study, 11 cystic acne patients (Example 7)", "conditions": "IR 970 nm 50 mW/cm2 15 min before 5-ALA; one month after PDT; most patients", "experimental": "Study Design/Materials and Methods: Eleven (11) patients were enrolled in a split face or split back (pre-treated side versus control) study with a pre-approved IRB protocol. […] Lesion count was assessed both manually and by digital photography before and 4 weeks after one PDT procedure. Prior to the application of 5-ALA, one side of the face or back was pre-treated with radiant IR [CW LEDs emitting @λ 970 nm, irradiance 50 mW/cm2 for 15 minutes, total fluence 45 J/cm2], while the other half was used as control. PDT was then performed on the entire surface (face or back)."}, "[1]": {"tested_on": "conversion of 5-ALA to protoporphyrin IX (PpIX)", "experiment": "Fluoderm fluorescence after 940 nm photopreparation and 5-ALA, one subject (Example 11)", "experimental": "In order to measure the effect of photopreparation on the skin we used an LED device (Lumiphase 940 nm, CW and Pulsed, irradiance: 70 mW/cm2, OpusMed, Montreal, Canada) prior to the application of a photosensitizer (5-ALA: Levulan, Kerastick, DUSA Pharmaceuticals, USA). We tested both CW and sequential pulsing modes 24 h and 30/15 minutes (total fluence 63 J/cm^2 before the application of 5-ALA for 3 hours). Following an incubation time of 3 hours, we measured the fluorescence induced by the conversion of 5-ALA to protoporphyrin IX (PpIX) with a dedicated device (Fluoderm, Dia-Medico ApS, Danemark). The pulsed radiation, referred to as D50 hereinbelow, consisted in pulse trains of 4 pulses with pulses lasting 500 μs separated with an inter-pulse interval within each train of 150 μs. The pulse trains were separated from each other by 1550 μs. Higher numbers mean higher conversion to PpIX, and thus indicate that the PDT treatment will be more efficient. All parameters were tested on adjacent portion of the subject's skin. The experiment was performed on the back of a person with phototype I."}}, "note": "Values joined by “and” are separate entries in the source; they are usually repeats but may differ in a detail not shown here. Equal values may be shown once. “Also recorded” adds a separate entry of the source."}
{"smiles": "NCC(=O)CCC(=O)O", "note": "[5-ALA, 5-aminolevulinic acid]", "values": [{"measurement": "Change from Baseline in Lesion Counts, Closed comedones, Median", "setting": "inflammatory acne; Control side (ALA-PDT alone)", "result": 0.00, "unit": "%"}, {"measurement": "Change from Baseline in Lesion Counts, Nodules, Median", "setting": "inflammatory acne; Control side (ALA-PDT alone)", "result": 20.00, "unit": "%"}, {"measurement": "Change from Baseline in Lesion Counts, Open comedones, Median", "setting": "inflammatory acne; Control side (ALA-PDT alone)", "result": 0.00, "unit": "%"}, {"measurement": "Change from Baseline in Lesion Counts, Papules, Median", "setting": "inflammatory acne; Control side (ALA-PDT alone)", "result": 38.10, "unit": "%"}, {"measurement": "Change from Baseline in Lesion Counts, Pustules, Median", "setting": "inflammatory acne; Control side (ALA-PDT alone)", "result": 0.00, "unit": "%"}, {"measurement": "Change from Baseline in Lesion Counts, Total Noninflammatory lesions, Median", "setting": "inflammatory acne; Control side (ALA-PDT alone)", "result": 0.00, "unit": "%"}, {"measurement": "Change from Baseline in Lesion Counts, Total Inflammatory lesions, Median", "setting": "inflammatory acne; Control side (ALA-PDT alone), listed as ALA", "result": "38% and 37.86%"}, {"measurement": "Clinical Global Severity Assessment at Week-4, Median", "setting": "inflammatory acne; Control side", "result": 2}, {"measurement": "treatment-related adverse effects / tolerability", "setting": "inflammatory acne; IR pre-treatment + ALA-PDT and ALA-PDT alone, listed as ALA", "result": "No unusual treatment-related adverse effects were observed; also recorded: overall well tolerated"}, {"measurement": "Clinical Global Severity Assessment at Week-4, Median", "setting": "inflammatory acne; IR-Treated side", "result": 1}, {"measurement": "Change from Baseline in Lesion Counts, Closed comedones, Median", "setting": "inflammatory acne; IR-Treated side", "result": 0.00, "unit": "%"}, {"measurement": "Change from Baseline in Lesion Counts, Nodules, Median", "setting": "inflammatory acne; IR-Treated side", "result": 100.00, "unit": "%"}, {"measurement": "Change from Baseline in Lesion Counts, Open comedones, Median", "setting": "inflammatory acne; IR-Treated side", "result": 0.00, "unit": "%"}, {"measurement": "Change from Baseline in Lesion Counts, Papules, Median", "setting": "inflammatory acne; IR-Treated side", "result": 75.00, "unit": "%"}, {"measurement": "Change from Baseline in Lesion Counts, Pustules, Median", "setting": "inflammatory acne; IR-Treated side", "result": 37.65, "unit": "%"}, {"measurement": "Change from Baseline in Lesion Counts, Total Noninflammatory lesions, Median", "setting": "inflammatory acne; IR-Treated side", "result": 0.00, "unit": "%"}, {"measurement": "Change from Baseline in Lesion Counts, Total Inflammatory lesions, Median", "setting": "inflammatory acne; IR-Treated side, listed as ALA", "result": "73% and 73.21%"}, {"measurement": "clinical success rate (almost clear or clear categories)", "setting": "inflammatory acne; IR-treated side, week-4", "result": 78, "unit": "%"}, {"measurement": "additional benefit of IR-treated side in inflammatory lesion count reduction", "setting": "inflammatory acne; IR-treated vs control side, week-4", "result": 35, "unit": "%"}, {"measurement": "clinical success rate (almost clear or clear categories)", "setting": "inflammatory acne; control side, week-4", "result": 44, "unit": "%"}, {"measurement": "time until slight erythema post-PDT disappeared", "setting": "inflammatory acne; most patients", "result": "≤ 48", "unit": "h"}, {"measurement": "duration of acneiform folliculitis", "setting": "inflammatory acne; two patients", "result": "3 to 4", "unit": "days"}, {"measurement": "number of cystic lesions, pre-treated versus control side", "setting": "cystic acne", "result": "statistically significant decrease in the number of cystic lesions"}, {"measurement": "Fold increase of fluorescence compared to 5-ALA alone", "setting": "[1]; PP 15 min pre-5-ALA: CW - 15 min", "result": "1.09 fold and 1.03 fold"}, {"measurement": "Fluoderm Measurements, Post 3 hour incubation (5-ALA)", "setting": "[1]; PP 15 min pre-5-ALA: CW - 15 min, 940 nm, 70 mW/cm2", "result": 51}, {"measurement": "Fold increase of fluorescence compared to 5-ALA alone", "setting": "[1]; PP 30 min pre-5-ALA: D50 - 30 min", "result": 1.19, "unit": "fold"}, {"measurement": "Fluoderm Measurements, Post 3 hour incubation (5-ALA)", "setting": "[1]; PP 30 min pre-5-ALA: D50 - 30 min, 940 nm, 70 mW/cm2", "result": 59}, {"measurement": "Fold increase of fluorescence compared to 5-ALA alone", "setting": "[1]; PP 24 h pre-5-ALA: CW - 15 min", "result": 1.13, "unit": "fold"}, {"measurement": "Fluoderm Measurements, Post 3 hour incubation (5-ALA)", "setting": "[1]; PP 24 h pre-5-ALA: CW - 15 min, 940 nm, 70 mW/cm2", "result": 56}, {"measurement": "Fold increase of fluorescence compared to 5-ALA alone", "setting": "[1]; PP 24 h pre-5-ALA: D50 - 30 min", "result": 1.45, "unit": "fold"}, {"measurement": "Fluoderm Measurements, Post 3 hour incubation (5-ALA)", "setting": "[1]; PP 24 h pre-5-ALA: D50 - 30 min, 940 nm, 70 mW/cm2", "result": 72}, {"measurement": "Fold increase of fluorescence compared to 5-ALA alone", "setting": "[1]; Positive control: 5-ALA alone", "result": 1, "unit": "fold"}, {"measurement": "Fluoderm Measurements, Post 3 hour incubation (5-ALA)", "setting": "[1]; Positive control: 5-ALA alone, no photopreparation", "result": 49.5}]}
